ChEMBL document CHEMBL1152761, “Synthesis of novel substituted pyrazole-5-carbohydrazide hydrazone derivatives and discovery of a potent apoptosis inducer in A549 lung cancer cells” (Bioorg Med Chem, 2009)
The source made the active and inactive calls. No cut-off for these calls is given here.

Tests used:
Type in all cases: functional, cell-based
[1] = system: A549; assay: Growth inhibition of human A549 cells after 48 hrs by MTT assay; details: for IC50: A549, 48 h
[2] = system: A549; assay: Induction of apoptosis in human A549 cells assessed as DNA fragmentation after 48 hrs by TUNEL assay
[3] = system: A549; assay: Induction of necrosis in human A549 cells assessed as LDH release at 0.1 uM after 24 to 48 hrs
[4] = system: A549; assay: Induction of necrosis in human A549 cells assessed as LDH release at 1 uM after 24 to 48 hrs
[5] = system: A549; assay: Induction of apoptosis in human A549 cells assessed as DNA fragmentation after 48 hrs by acridine orange staining
[6] = system: A549; assay: Induction of apoptosis in human A549 cells assessed as cell shrinkage like morphological changes at 1 uM after 48 hrs by light microscopy
[7] = system: A549; assay: Induction of necrosis in human A549 cells assessed as LDH release at 0.5 uM after 24 to 48 hrs

SMILES	IC50 [1] [µM]	Activity [1]	other results
C/C(=N\NC(=O)c1cc(-c2ccc(Cl)cc2)nn1Cc1ccc(C(C)(C)C)cc1)c1cc(Cl)cc(Cl)c1O	7.9	Dose-dependent effect	–
COc1ccc(-c2cc(C(=O)N/N=C(\C)c3cc(Cl)ccc3O)n(Cc3ccc(C(C)(C)C)cc3)n2)cc1	9.62	Dose-dependent effect	–
C/C(=N\NC(=O)c1cc(-c2ccccc2)nn1Cc1ccc(C(C)(C)C)cc1)c1cc(Cl)ccc1O	2.77	Dose-dependent effect	–
COc1ccc(-c2cc(C(=O)N/N=C(\C)c3cc(C)ccc3O)n(Cc3ccc(C(C)(C)C)cc3)n2)cc1	10.4	Dose-dependent effect	–
C/C(=N\NC(=O)c1cc(-c2ccccc2)nn1Cc1ccc(C(C)(C)C)cc1)c1cc(C)ccc1O	6.1	Dose-dependent effect	–
C/C(=N\NC(=O)c1cc(-c2ccccc2)nn1Cc1ccc(C(C)(C)C)cc1)c1cc(Cl)cc(Cl)c1O	3.17	Dose-dependent effect	–

Now those with a lower IC50 [1], led by results:

IC50 [1] [µM]	SMILES	Activity [1]	other results
2.49	C/C(=N\NC(=O)c1cc(-c2ccc(Cl)cc2)nn1Cc1ccc(C(C)(C)C)cc1)c1cc(C)ccc1O	Dose-dependent effect	–
2.08	COc1ccc(-c2cc(C(=O)N/N=C(\C)c3cc(Cl)cc(Cl)c3O)n(Cc3ccc(C(C)(C)C)cc3)n2)cc1	Dose-dependent effect	–
0.28	C/C(=N\NC(=O)c1cc(-c2ccc(Cl)cc2)nn1Cc1ccc(C(C)(C)C)cc1)c1cc(Cl)ccc1O	Dose-dependent effect	Activity [2]: Active; Activity [3]: inactive; Activity [4]: inactive; Activity [5]: Active; Activity [6]: Active; Activity [7]: inactive
